Marks after values point to notes of the source that are not given here.
Columns and labels:
[1] = test system: L. cremoris; assay: Cell-binding assay by flow cytometry; design: species or system Lactococcus cremoris; details: organism printed as L. lactis; signal did not saturate; read-out: Apparent KD
Experimental: (§1) The binding affinity and avidity of pediocin to various gram-positive and gram-negative bacteria were studied using flow cytometry. Late log-phase cells were washed in the sodium phosphate buffer (5 mM, pH 6.0) and resuspended at an OD600 of 10^–3 in sodium-acetate buffer (25 mM, pH 4.0), sodium phosphate buffer (5 mM, pH 6.0), or sodium phosphate buffer (5 mM, pH 7.4) containing 1% bovine serum albumin (BSA) and 100 mM NaCl. Cells were incubated with varying concentrations of the conjugated peptide at 4°C for 30 min. The unbound peptide was removed by centrifugation, and the pellet was resuspended in its respective binding buffer containing 1% BSA. Flow cytometry was performed on an Attune NxT flow cytometer (Life Technologies/ThermoFisher Scientific, Carlsbad, CA). Data (≥10^4 events were recorded) were recorded using a […] (488 nm) at a voltage of 360 V, and gating was performed on an SSC-A versus SSC-H plot to reduce false events.

[2] = test system: L. casei; assay: Cell-binding assay by flow cytometry; design: species or system Lacticaseibacillus casei; details: signal did not saturate
Experimental: as §1

[3] = Specific activity of partially purified pediocin by agar-well diffusion method; type: cell-based; details: after cell adsorption-desorption and dialysis
Source text: We then proceeded to clone the pediocin operon (pedABCD [43]) from P. acidilactici UL5 into the pSIP-P27 vector for heterologous expression in other lactic acid bacteria, viz., Lactiplantibacillus plantarum WCFS1, Lactococcus cremoris MG1363, and the well-established expression host, E. coli MG1655. The pediocin operon imparted anti-listerial activity to the L. plantarum culture supernatant but not to that of L. cremoris or E. coli (Fig. 1A). Based on the degree of bioactivity, we concluded that the level of recombinant biosynthetic pediocin PA-1 accumulated in L. plantarum culture was […] that observed for P. acidilactici UL5 and was therefore not pursued further. Thus, for subsequent studies, we isolated pediocin PA-1 from P. acidilactici UL5 directly using the cell adsorption-desorption approach (Fig. S2). […] We attempted to further purify the preparation using reverse-phase high performance liquid chromatography with minimal enhancement in purity but a significant loss in yield (Fig. S3). The peptide recovered after cell adsorption-desorption and dialysis was lyophilized for long-term storage to minimize any loss in activity. The peptide using this method was purified 189-fold with a specific activity of 9,434 AU·mg^−1 as measured by agar-well diffusion method (Fig. 1B; Fig. S2A through C). […]

[4] = test system: E. coli; assay: Cell-binding assay by flow cytometry; design: species or system Escherichia coli; details: negative control species; signal did not saturate; read-out: Apparent KD
Experimental: as §1

[5] = test system: L. seeligeri; type: cell-based, Listeria seeligeri; details: 24 h
Experimental: (§2) To determine the potency of the purified pediocin PA-1, we generated kill curves against a range of target bacteria (Fig. 1C). The concentration range tested was 3 pM to 3 μM following 10-fold serial dilutions. […] This is in approximate agreement with the published potency of pediocin PA-1 ([46]). Though the molecular mass of pediocin PA-1 is expected to be 4.5 kDa, we observed the partially purified peptide to migrate with an apparent mass of ~12.5 kDa (Fig. 1B). However, subsequent analysis by LC-MS yielded peaks of multiple m/z with the predominant peak at the expected molecular size of 4.6 kDa (Fig. S4). The purified pediocin PA-1, separated on denaturing but non-reducing SDS-PAGE (since this bacteriocin contains two crucial disulfide bonds), was subjected to agar-overlay assay using L. seeligeri as the indicator organism (Fig. S5).
(§3) The antimicrobial spectrum of pediocin PA-1 was assayed using a kill curve. Cultures grown overnight were resuspended in fresh medium at an OD600 of 0.05. EC50 was determined by incubating cells with varying concentrations of pediocin in a 96-well plate, and growth was measured at 600 nm after 24 h.
Figure S7. Growth inhibition of L. seeligeri by modified and unmodified pediocin PA-1.

[6] = type: physicochemical
Source text: We then proceeded to clone the pediocin operon (pedABCD [43]) from P. acidilactici UL5 into the pSIP-P27 vector for heterologous expression in other lactic acid bacteria, viz., Lactiplantibacillus plantarum WCFS1, Lactococcus cremoris MG1363, and the well-established expression host, E. coli MG1655. The pediocin operon imparted anti-listerial activity to the L. plantarum culture supernatant but not to that of L. cremoris or E. coli (Fig. 1A). Based on the degree of bioactivity, we concluded that the level of recombinant biosynthetic pediocin PA-1 accumulated in L. plantarum culture was similar to that observed for P. acidilactici UL5 and was therefore not pursued further. Thus, for subsequent studies, we isolated pediocin PA-1 from P. acidilactici UL5 directly using the cell adsorption-desorption approach (Fig. S2). […] We attempted to further purify the preparation using reverse-phase high performance liquid chromatography with minimal enhancement in purity but a significant loss in yield (Fig. S3). The peptide recovered after cell adsorption-desorption and dialysis was lyophilized for long-term storage to minimize any loss in activity. The peptide using this method was purified 189-fold with a specific activity of 9,434 AU·mg^−1 as measured by agar-well diffusion method (Fig. 1B; Fig. S2A through C).

[7] = test system: L. coryniformis; type: cell-based, Lactobacillus coryniformis; details: 24 h
Experimental: as §2, §3

[8] = test system: L. coryniformis; assay: Cell-binding assay by flow cytometry; design: species or system Lactobacillus coryniformis; details: maximum mean fluorescence intensity, Hill fit
Experimental: as §1

[9] = test system: Bacillus subtilis; assay: Cell-binding assay by flow cytometry; details: maximum mean fluorescence intensity, Hill fit
Experimental: as §1

CC[C@H](C)[C@@H]1NC(=O)[C@@H](NC(=O)[C@@H](NC(=O)[C@@H](NC(=O)[C@H](C)NC(=O)[C@H](CCCCN)NC(=O)CNC(=O)[C@H](Cc2c[nH]c3ccccc23)NC(=O)[C@H](CC(=O)O)NC(=O)[C@@H](NC(=O)[C@H](CO)NC(=O)[C@@H]2CSSC[C@H](NC(=O)[C@@H](NC(=O)[C@@H](NC(=O)CNC(=O)[C@H](CC(N)=O)NC(=O)CNC(=O)[C@H](Cc3ccc(O)cc3)NC(=O)[C@H](Cc3ccc(O)cc3)NC(=O)[C@@H](N)CCCCN)C(C)C)[C@@H](C)O)C(=O)NCC(=O)N[C@@H](CCCCN)C(=O)N[C@@H](Cc3c[nH]cn3)C(=O)N[C@@H](CO)C(=O)N2)C(C)C)[C@@H](C)O)[C@@H](C)O)CSSC[C@@H](C(=O)O)NC(=O)[C@H](CCCCN)NC(=O)[C@H](Cc2c[nH]cn2)NC(=O)[C@H](CC(N)=O)NC(=O)CNC(=O)[C@H](CCC(N)=O)NC(=O)[C@H](Cc2c[nH]cn2)NC(=O)CNC(=O)CNC(=O)[C@H]([C@@H](C)O)NC(=O)[C@H](C)NC(=O)[C@H](Cc2c[nH]c3ccccc23)NC(=O)[C@H](C)NC(=O)[C@H](CCSC)NC(=O)[C@H](C)NC(=O)CNC(=O)[C@H](CC(N)=O)NC(=O)[C@H](CC(N)=O)NC(=O)[C@H]([C@@H](C)CC)NC1=O [pediocin PA-1]
Kd [1]: > 2000 nM | MFImax [2]: >2* ×10^3 | Kd ([2]; read-out: Apparent KD): > 2000 nM | specific activity [3]: 9,434 AU·mg^−1 | Kd [4]: > 2000 nM | EC50 [5]: ~13.3 nM | stability of peptide recovered at acidic pH compared with basic pH [6]: more stable | EC50 [7]: ~1 nM | MFImax [8]: 6.3 ± 0.3 ×10^3 | MFImax [9]: 7 ± 1 ×10^3
